From patent US20230106760A1, “ANTIBACTERIAL AND ANTIFUNGAL POLYKETIDES FROM ENVIRONMENTAL AMYCOLATOPSIS SPP” (The United States of America, as represented by the …, priority 2020, published 2023) come the findings set out here.

The structures appear in SMILES notation. Values after ≈ are worked out from the molar mass of the structure shown.

As a reminder, the MIC is the lowest concentration found to suppress growth.

The test system of assay [1] is Amphotericin B-resistant C. albicans ATCC 200955. It is filed as cell-based. The protocol:
(§1) The compounds were assayed against Gram-positive bacteria Staphylococcus aureus (Sa), methicillin-resistant Sa (MRSA), Enterococcus faecalis, and Vancomycin-resistant E. faecalis; the Gram-negative bacteria Escherichia coli and Pseudomonas aeruginosa; and the fungi Candida albicans and Amphotericin B-resistant C. albicans.
(§2) The growth conditions were adapted from the CLSI protocols for broth dilution susceptibility assays. A culture of S. aureus ATCC 29213 was diluted with MHII broth to an inoculum of—5×10^5 CFU/mL. Cultures were grown in 100 μL in round-bottom 96-well plates with increasing concentrations of test or control compound. Plates were gently rocked at 37° C. overnight and then 50 μL of each culture was spread onto TSA plates without antibiotic. The plates were incubated at 37° C. overnight and then examined for bacterial growth. Similarly, an inoculum of C. albicans ATCC 28517 or C. auris ATCC MYA-5001 was prepared in RPMI-1640 with 165 mM MOPS at 0.5×10^3-2.5×10^3 CFU/mL. Cultures were grown in 200 μL in round-bottom 96-well plates with increasing concentrations of test or control compound. Plates were gently rocked at 35° C. overnight and then 50 μL of each culture was spread onto Sabouraud dextrose agar (SDA) plates without compound. The plates were incubated at 35° C. overnight and then examined for fungal growth.

In assay [2] the test system is Staphylococcus aureus (Sa) ATCC 29213. As to the kind of experiment: MIC, CLSI broth dilution susceptibility assay. It is filed as cell-based. The settings on record: for Minimum Inhibitory Concentration (MIC): Staphylococcus aureus ATCC 29213. As to the method: as §1, §2
For orientation: In broth dilution the organism is exposed to a series of concentrations in liquid medium.

Assay [3] deals with Escherichia coli ATCC 25922. Description: MIC, CLSI broth dilution susceptibility assay. It is filed as cell-based. The protocol:
as §1, §2

The test system of assay [4] is Pseudomonas aeruginosa ATCC 27853. As to the kind of experiment: MIC, CLSI broth dilution susceptibility assay. It is filed as cell-based. As to the method:
as §1, §2

For assay [5], the system named is Candida auris ATCC MYA-5001. As to the kind of experiment: MIC, CLSI broth dilution susceptibility assay. It is filed as cell-based. Conditions: for Minimum Inhibitory Concentration (MIC): Candida auris ATCC MYA-5001. As to the method: as §1, §2
In assay [6] the test system is Candida albicans ATCC 28517. As to the kind of experiment: MIC, CLSI broth dilution susceptibility assay. It is filed as cell-based. Conditions: for Minimum Inhibitory Concentration (MIC): Candida albicans ATCC 28517. The protocol: as §1, §2
Assay [7] has as its system Enterococcus faecalis ATCC 29212. As to the kind of experiment: MIC, CLSI broth dilution susceptibility assay. It is filed as cell-based. The settings on record: for Minimum Inhibitory Concentration (MIC): Enterococcus faecalis ATCC 29212. The protocol: as §1, §2
In assay [8] the test system is MRSA, methicillin-resistant Sa ATCC 43300. Description: MIC, CLSI broth dilution susceptibility assay. It is filed as cell-based, Staphylococcus aureus. The settings on record: for Minimum Inhibitory Concentration (MIC): MRSA ATCC 43300. The protocol: as §1, §2
The test system of assay [9] is Vancomycin-resistant E. faecalis ATCC 51299. As to the kind of experiment: MIC, CLSI broth dilution susceptibility assay. It is filed as cell-based, Enterococcus faecalis. The protocol: as §1, §2
The test system of a further assay is S. aureus ATCC 29213. As to the kind of experiment: Bactericidal activity: broth cultures with compound plated onto TSA without antibiotic. It is filed as cell-based, Staphylococcus aureus. The settings on record: for MIC: Staphylococcus aureus, ATCC29213. The protocol: as §2
(§3) After treatment with concentrations of compound 2 at or nearing the MIC, no viable organism could be recovered.
(§4) FIG. 19-20 show bactericidal and fungicidal activities of compound 2. FIG. 19A-C show the bactericidal activity of compound 2 against S. aureus ATCC 29213. […] FIG. 20A-B show the fungicidal activity of compound 2.

The next assay has as its system C. albicans ATCC 28517. Description: Fungicidal activity: broth cultures with compound plated onto SDA without compound. It is filed as cell-based, Candida albicans. As to the method:
as §2, §3, §4

The subject of another assay is C. auris ATCC MYA-5001. The assay is described as above. It is filed as cell-based, Candida auris. As to the method:
as §2, §3, §4

The subject of assay [10] is Amycolatopsis glycosyltransferase. As to the kind of experiment: Glycosyltransferase assay (substrate specificity). It is filed as biochemical, Amycolatopsis sp. F10. The settings on record: PBS, 500 μM UDP-glucose, 100 μM substrate, 30° C., 2 to 30 min; HPLC UV 254 nm or MS. The protocol:
Glycosyltransferase expression vector cloning: An expression vector pET28b-gt was constructed by cloning the glycosyltransferase gene into pET28b (Novagen) with a C-terminal 6-His tag using the NEBuilder HiFi DNA Assembly kit (New England Biolabs). The glycosyltransferase gene was PCR amplified from F10 genomic DNA with primers that appended 5′ and 3′ overhangs homologous to the pET28b multiple cloning site. The linearized pET28b vector was prepared by restriction enzyme digestion with NcoI and XhoI. After cloning and confirmation by Sanger sequencing, pET28b-gt was transformed into E. coli BL21(DE3) for protein expression. The expression vector pET28b-gt-H15A was created from pET28b-gt with site-directed mutagenesis using overlapping primers and the QuikChange II kit.
Glycosyltransferase recombinant protein purification: An overnight culture of the glycosyltransferase expression strain in Luria-Bertani broth (LB) was used to inoculate 2 L LB with a 1:100 dilution (v/v). The culture was grown at 37° C. to OD600=0.5-0.7 and 0.1 mM isopropyl β-d-1-thiogalactopyranoside (IPTG) was added to induce protein expression for 4 hours. Cells were harvested by centrifugation, suspended in 20 mL phosphate-buffered saline (PBS) and stored at −80° C. For purification, the cells were thawed, lysed (lysozyme, DNase, MgCl2, phenylmethylsulfonyl fluoride (PMSF), and sonication), and cellular debris was removed by centrifugation. The glycosyltransferase was purified from the clarified lysate in two chromatographic steps on an AKTA Pure 25 FPLC. […] The eluted fractions containing the glycosyltransferase were confirmed by SDS-PAGE, pooled, and concentrated and buffer exchanged to remove imidazole in a 10000 Da MW centrigual filter device. The sample was run on a HiLoad Superdex 75 pg 16/600 size exclusion column with 50 mM HEPES pH 6.8/50 mM NaCl/10% glycerol. Protein purity was confirmed by SDS-PAGE. The purified glycosyltransferase was concentrated and flash frozen in aliquots at […]. […]

[11] abbreviates: S. aureus ATCC 29213, FIG. 19 bactericidal experiment.
[12] abbreviates: at or nearing the MIC no viable organism could be recovered.

For `CC/C=C/C=C/C=C/C(O)CC1(O)OC(CC(O)C(O)C(O)C(O)C(O)C(C)C(O)C(C)C(O)CC(O)CC(O)CC(O)C(C)C(O)C(C)C(O)C(C)C(O)C(CC(C)CC(C)/C=C(C)/C(O)=C2/C(=O)C(C)N(C)C2=O)OC2OC(CO)C(O)C(O)C2O)C(O)C(O)C1O` (stereo not shown) [Compound 1], the “Minimum Inhibitory Concentration (MIC)” value in assay [1], in assay [2], in assay [3], in [4], in assay [5] and in [6] was over 128 micrograms/mL each time. The “Minimum Inhibitory Concentration (MIC)” value in assay [7], in assay [8] and in assay [9] was over 128 micrograms/mL in each case.
As for `CC/C=C/C=C/C=C/C(O)CC1(O)OC(CC(O)C(O)C(O)C(O)C(O)C(C)C(O)C(C)C(O)CC(O)CC(O)CC(O)C(C)C(O)C(C)C(O)C(C)C(O)C(O)CC(C)CC(C)/C=C(C)/C(O)=C2/C(=O)C(C)N(C)C2=O)C(O)C(O)C1O` (stereo not shown) [Compound 2], the “Minimum Inhibitory Concentration (MIC)” value in [1] is recorded as 8 micrograms/mL; in assay [2], 2 micrograms/mL; in assay [3] it was over 128 micrograms/mL; in assay [4] it was over 128 micrograms/mL; in assay [5], 16 micrograms/mL; in assay [6], 8 micrograms/mL. Also, the “Minimum Inhibitory Concentration (MIC)” value in assay [7] is given as 8 micrograms/mL; in assay [8], 2 micrograms/mL; in [9], 8 micrograms/mL. Moreover, the “MIC in the experiment” value with S. aureus ATCC 29213 (setting [11]) came out at 2 µg/mL (≈ 1.67 µM); in the assay with C. albicans ATCC 28517 (C. albicans ATCC 28517, FIG. 20A fungicidal experiment) it was 8 µg/mL (≈ 6.7 µM); with C. auris ATCC MYA-5001 (C. auris ATCC MYA-5001, FIG. 20B fungicidal experiment) it was 16 µg/mL (≈ 13.4 µM). Moreover, the “Mode of action against S. aureus (bactericidal)” value in the assay with S. aureus ATCC 29213 (setting [12]) was “bactericidal”. For the same molecule, the “Mode of action against C. albicans (fungicidal)” value in the assay with C. albicans ATCC 28517 (setting [12]) is “fungicidal”. Further, in the assay on C. auris ATCC MYA-5001 (setting [12]), the “Mode of action against C. auris (fungicidal)” value is reported as “fungicidal”. Besides, in assay [10], the “Glycosyltransferase activity on the substance as substrate” value (from here on “Glycosyltransferase activity”) was “complete conversion”.
As for `C[C@@H]1[C@H](O)[C@@H](C)/C=C/C=C/C=C/C=C/C=C/C=C/C=C/[C@H](O[C@@H]2O[C@H](C)[C@@H](O)[C@H](N)[C@@H]2O)C[C@@H]2O[C@](O)(C[C@@H](O)C[C@@H](O)[C@H](O)CC[C@@H](O)C[C@@H](O)CC(=O)O[C@H]1C)C[C@H](O)[C@H]2C(=O)O` [amphotericin B, reference compound], the “MIC, antibiotic control” value in assay [6] (C. albicans, footnote control) is given as “C. albicans: amphotericin B = 2 ug/mL”.
Turning to `O=C(N[C@H](CO)[C@H](O)c1ccc([N+](=O)[O-])cc1)C(Cl)Cl` [chloramphenicol, reference compound], the MIC with S. aureus ATCC 29213 (setting [11]) was 8 µg/mL (≈ 24.8 µM).
For `CC[C@H]1OC(=O)[C@H](C)[C@@H](O[C@H]2C[C@@](C)(OC)[C@@H](O)[C@H](C)O2)[C@H](C)[C@@H](O[C@@H]2O[C@H](C)C[C@H](N(C)C)[C@H]2O)[C@](C)(O)C[C@@H](C)C(=O)[C@H](C)[C@@H](O)[C@]1(C)O` [erythromycin], the “Glycosyltransferase activity” value in [10] is listed as “no activity”.
For `OC(Cn1cncn1)(Cn1cncn1)c1ccc(F)cc1F` [fluconazole, reference compound], the “MIC, antibiotic control” value in assay [5] (C. auris, footnote control) is given as “C. auris: fluconazole = 1 ug/mL”.
Take `Cc1onc(-c2ccccc2)c1C(=O)N[C@@H]1C(=O)N2[C@@H]1SC(C)(C)[C@@H]2C(=O)O` [oxacillin, reference compound]: the MIC in the assay with S. aureus ATCC 29213 (setting [11]) worked out at 2 µg/mL (≈ 4.98 µM). For the same molecule, the “MIC, antibiotic control” value in [2] (S. aureus, footnote control) is “S. aureus: oxacillin = 0.25-0.5 ug/mL”.
With `CC[C@H]1OC(=O)C[C@@H](O)[C@H](C)[C@@H](O[C@@H]2O[C@H](C)[C@@H](O[C@H]3C[C@@](C)(O)[C@@H](O)[C@H](C)O3)[C@H](N(C)C)[C@H]2O)[C@@H](CC=O)C[C@@H](C)C(=O)/C=C/C(C)=C/[C@@H]1CO[C@@H]1O[C@H](C)[C@@H](O)[C@@H](OC)[C@H]1OC` [tylosin], in [10], the “Glycosyltransferase activity” value is listed as “no activity”.
Turning to `CN[C@H](CC(C)C)C(=O)N[C@H]1C(=O)N[C@@H](CC(N)=O)C(=O)N[C@H]2C(=O)N[C@H]3C(=O)N[C@H](C(=O)N[C@H](C(=O)O)c4cc(O)cc(O)c4-c4cc3ccc4O)[C@H](O)c3ccc(c(Cl)c3)Oc3cc2cc(c3O[C@@H]2O[C@H](CO)[C@@H](O)[C@H](O)[C@H]2O[C@H]2C[C@](C)(N)[C@H](O)[C@H](C)O2)Oc2ccc(cc2Cl)[C@H]1O` [vancomycin, reference compound], the “MIC, antibiotic control” value is “E. faecalis: vancomycin = 2 ug/mL” in [7] (E. faecalis, footnote control) and “MRSA: vancomycin = 0.5-1 ug/mL” in assay [8] (MRSA, footnote control).
